According to US6395740B1, “Calcitonin mimetics” (ZymoGenetics, Inc., priority 1997, dated 2002):

Assays:
[1] = TPTX rats, co-administration with PTH, two days; cited from earlier work
[2] = Induction of hypocalcemia in rats; assay type: in vivo; details: weanling male rats, tail vein, 0.5, 2.5, 5, 50 and 100 ng/rat, one hour
Procedure: This assay is based on the in vivo acute effect of calcitonin on osteoclasts, which causes rapid retraction of osteoclass from bone surface (typically within 30 minutes) and which results in decreased bone resorption. See Mills, et al., in Endocrinology 1971—Proceedings of the Third International Symposium, Taylor (ed), Heinemann Medical, London, pp. 79-88 (1972) and Singer, et al., Clin. Endocrinol. 5(Supp):333s-340s (1976); the disclosures of which are incorporated herein by reference. The assay method was modified from the method described by Sturtridge and Kumar, Lancet 545:725-6, 1968, the disclosure of which is incorporated herein by reference.
For the assay of hypocalcemic activity, weanling male Holtzman Sprague-Dawley rats (22 days old) are infused with vehicle (PBS with 1 mM HCl and 0.1% BSA), calcitonin or calcitonin mimetics through the tail vein. One hour later, blood samples are collected by orbital sinus puncture to determine serum levels of calcium. A decrease in serum calcium indicates a hypocalcemic response. The hypocalcemic response is dose-dependent as determined using salmon calcitonin (0.5, 2.5, 5, 50 and 100 ng/rat) in this model.

[3] = tested on: PTH-induced bone resorption in mouse calvaria; assay: Calvarial assay to determine calcitonin escape; assay type: cell-based; details: for visual observation of the calvaria (resorption): final time point (98 hours)
Procedure: Calvaria from 4-day old neonatal CD-1 mice (pregnant mice received from Charles River Laboratories) were trimmed with fine-tipped scissors to leave the parietal regions, including the sagittal suture. These trimmed bones were placed singly per well into 6-well culture cluster plates (Costar) with 1 mL/well of growth medium, Basel Medium (Eagle's with Earle's salts (GIBCO BRL, Gaithersburg, Md.)) containing 4.5 g/L glucose, 0.29 mg/mL L-glutamine, 1 mM sodium pyruvate, 15% heat-inactivated horse serum, antibiotics (penicillin-G 50 μg/mL, streptomycin 50 μg/mL, and neomycin 100 μg/mL) and containing 5 nM parathyroid hormone (PTH) 1-34 (Sigma), and rocked gently (RedRocker™) at 37° C. in a 5% CO2 humidified incubator for 17.5 hours preincubation. The concentration of PTH was chosen to insure maximum resorption. Calvaria designated as controls were pre-incubated in media without PTH.
Following preincubation, medium was removed and replaced with 1 mL/well of growth medium, as above, containing 20 or 30 μg/mL of the calcitonin mimetic 850-0231 in DMSO (final assay concentration of DMSO less than or equal to 1%), and compared with human calcitonin (hCT) tested at 0.5, 1.0, 5.0, […] All control wells contained a final assay concentration of DMSO equal to that present in the calcitonin mimetic treated wells.
Five bones were included in each sample group. Bones were incubated for a total of 98 hours. Time points were taken at 4, 8, 11, 24, 50.5, 72.5 and 98 hours. At each time point the media containing PTH was removed and fresh dilutions of compound in media were added to the calvaria. After the media was removed, total calcium measurements were made using a Nova 7/7+7 Electrolyte Analyzed (Nova Biomedical) according to the manufacturer's specifications. Induction of bone resorption by PTH is seen as an increase in the concentration of calcium in the growth medium due to degradation of the bone matrix.
A second calvaria bone resorption/escape assay was performed as described above with time points at 4, 8, 12, 16, 24, 49 and 73 hours. […] Histology was done on the PTH-treated and the 30 μg/mL calcitonin mimetic-treated calvaria.
A third calvaria bone resorption/escape assay was performed as described above with the following modifications. The calcitonin mimetic was tested at 5, 10 and 20 μg/mL. PTH was used at 10 nM to insure maximal resorption, hCT was tested at 2 nM and 8 nM and sCT was not included. Calvaria were pretreated with PTH for 19.75 hours. BrdU (bromodeoxyuridine, final concentration 10 μM) was added to the growth media for the final 17.5 hours, to identify proliferating cells. The lack of toxicity of 850-0231 will be verified by quartitating the number of proliferating BudU cells in histological sections of the calvaria. Time points were taken at 4, 8, 11, 24.5, 48 and 77 hours. A Novo CRT 10+ electrolyte analyzer (Nova Biomedical) was used to analyze the time point samples.
At the final time point, visual observations were made and photos taken to note the extent of resorption, and migration from the calvarial cells as a measure of toxicity. Again, human calcitonin lost its inhibitory effect between hours 11 and 24 (Table 5). The calvaria treated with the mimetic at 5 and 10 μg/mL also lost inhibitory effect between 11 and 24 hours.

[4] = tested on: osteoclasts in PTH-treated mouse calvariae; assay: Calvaria histology: osteoclast number and size; assay type: cell-based; details: PTH 1-34 treated mouse calvariae
From the text: To confirm the findings in the calvarial bone resorption assay employing calcium release from culture mouse calvariae, selected bones were fixed in 10% neutral buffered formalin and demineralized in 5% formic acid with 5% formalin. The bones were dehydrated through an ascending series of ethanol concentrations, infiltrated in glycol methacrylate, and embedded using a JB-4 embedding kit (PolySciences, warrington, Pa.) (Liu et al., J. Bone Mineral Res. 5:973-82 (1990)). Cross sections of calvariae cut at 5 μm were obtained and stained for tartrate-resistant acid phosphatase (TRAP) activity and counterstained with merhyl green and thionin for cell morphology (Laiu et al., supra). Osteociasts were identified by TRAP stain, multinucleation, large cell size, and irregular cell shape. The number of osteoclasts were counted from endocranial and ectocranial bone surfaces and expressed as number/mm perimeter. The size of all the osteoclasts counted was also measured using a Bone Morphometry program (Liu et al., supra; Bain, et al., J. Bone Miner. Res. 8:435-42 (1993)). […]
Calcitonin mimetic compounds were evaluated in a similar fashion for their ability to suppress PTH-induced increases in osteoclast number and size. Cell toxicity (or death) was also evaluated by the appearance of pyknotic nuclei in a small number of bone cells. […]

salmon calcitonin
PTH-induced serum, bone and kidney changes [1]: attenuated
hypocalcemic response (decrease in serum calcium) [2]: dose-dependent
time after which inhibitory effect on resorption was lost (escape) ([3]; first assay, PTH 5 nM): approximately 24 hours
Cumulative Total Calcium ([3]; first assay, PTH 5 nM, sCT 0.2 nM, 4 hours): 0.10 mg %
Cumulative Total Calcium ([3]; first assay, PTH 5 nM, sCT 0.2 nM, 8 hours): 0.18 mg %
Cumulative Total Calcium ([3]; first assay, PTH 5 nM, sCT 0.2 nM, 11 hours): 0.34 mg %
Cumulative Total Calcium ([3]; first assay, PTH 5 nM, sCT 0.2 nM, 24 hours): 1.76 mg %
Cumulative Total Calcium ([3]; first assay, PTH 5 nM, sCT 0.2 nM, 50.5 hours): 6.12 mg %
Cumulative Total Calcium ([3]; first assay, PTH 5 nM, sCT 0.2 nM, 72.5 hours): 9.88 mg %
Cumulative Total Calcium ([3]; first assay, PTH 5 nM, sCT 0.2 nM, 98 hours): 13.22 mg %
visual observation of the calvaria (resorption) ([3]; first assay): less resorption
Cumulative Total Calcium ([3]; second assay, PTH 5 nM, sCT 1 nM, 4 hours): −0.02 mg %
Cumulative Total Calcium ([3]; second assay, PTH 5 nM, sCT 1 nM, 8 hours): −0.16 mg %
Cumulative Total Calcium ([3]; second assay, PTH 5 nM, sCT 1 nM, 12 hours): −0.20 mg %
Cumulative Total Calcium ([3]; second assay, PTH 5 nM, sCT 1 nM, 16 hours): 0.08 mg %
Cumulative Total Calcium ([3]; second assay, PTH 5 nM, sCT 1 nM, 24 hours): 0.92 mg %
Cumulative Total Calcium ([3]; second assay, PTH 5 nM, sCT 1 nM, 49 hours): 6.02 mg %
Cumulative Total Calcium ([3]; second assay, PTH 5 nM, sCT 1 nM, 73 hours): 11.56 mg %

human calcitonin
PTH-induced increase in number and size of osteoclasts [4]: suppressed
time after which inhibitory effect on resorption was lost (escape) ([3]; first assay, PTH 5 nM): approximately 24 hours
Cumulative Total Calcium ([3]; first assay, PTH 5 nM, hCT 10 nM, 4 hours): 0.02 mg %
Cumulative Total Calcium ([3]; first assay, PTH 5 nM, hCT 10 nM, 8 hours): 0.02 mg %
Cumulative Total Calcium ([3]; first assay, PTH 5 nM, hCT 10 nM, 11 hours): −0.02 mg %
Cumulative Total Calcium ([3]; first assay, PTH 5 nM, hCT 10 nM, 24 hours): 0.98 mg %
Cumulative Total Calcium ([3]; first assay, PTH 5 nM, hCT 10 nM, 50.5 hours): 4.96 mg %
Cumulative Total Calcium ([3]; first assay, PTH 5 nM, hCT 10 nM, 72.5 hours): 8.24 mg %
Cumulative Total Calcium ([3]; first assay, PTH 5 nM, hCT 10 nM, 98 hours): 12.26 mg %
visual observation of the calvaria (resorption) ([3]; first assay): less resorption
Cumulative Total Calcium ([3]; second assay, PTH 5 nM, hCT 10 nM, 4 hours): 0.10 mg %
Cumulative Total Calcium ([3]; second assay, PTH 5 nM, hCT 10 nM, 8 hours): −0.04 mg %
Cumulative Total Calcium ([3]; second assay, PTH 5 nM, hCT 10 nM, 12 hours): −0.06 mg %
Cumulative Total Calcium ([3]; second assay, PTH 5 nM, hCT 10 nM, 16 hours): 0.12 mg %
Cumulative Total Calcium ([3]; second assay, PTH 5 nM, hCT 10 nM, 24 hours): 0.92 mg %
Cumulative Total Calcium ([3]; second assay, PTH 5 nM, hCT 10 nM, 49 hours): 5.70 mg %
Cumulative Total Calcium ([3]; second assay, PTH 5 nM, hCT 10 nM, 73 hours): 10.60 mg %
Cumulative Total Calcium ([3]; third assay, PTH 10 nM, hCT 2 nM, 4 hours): 0.01 mg %
Cumulative Total Calcium ([3]; third assay, PTH 10 nM, hCT 2 nM, 8 hours): 0.10 mg %
Cumulative Total Calcium ([3]; third assay, PTH 10 nM, hCT 2 nM, 11 hours): 0.10 mg %
Cumulative Total Calcium ([3]; third assay, PTH 10 nM, hCT 2 nM, 24.5 hours): 1.22 mg %
Cumulative Total Calcium ([3]; third assay, PTH 10 nM, hCT 2 nM, 48 hours): 4.88 mg %
Cumulative Total Calcium ([3]; third assay, PTH 10 nM, hCT 2 nM, 77 hours): 9.55 mg %
Cumulative Total Calcium ([3]; third assay, PTH 10 nM, hCT 8 nM, 4 hours): 0.08 mg %
Cumulative Total Calcium ([3]; third assay, PTH 10 nM, hCT 8 nM, 8 hours): 0.24 mg %
Cumulative Total Calcium ([3]; third assay, PTH 10 nM, hCT 8 nM, 11 hours): 0.27 mg %
Cumulative Total Calcium ([3]; third assay, PTH 10 nM, hCT 8 nM, 24.5 hours): 1.45 mg %
Cumulative Total Calcium ([3]; third assay, PTH 10 nM, hCT 8 nM, 48 hours): 4.60 mg %
Cumulative Total Calcium ([3]; third assay, PTH 10 nM, hCT 8 nM, 77 hours): 9.74 mg %
